Reference: patent publication EP1642577A1, “Derivatives of aryl (or heteroaryl) azolylcarbinols for the treatment of central neuropathic pain” (Laboratorios Dr. Esteve S.A., priority 2004, dated 2006)

Tested on: Rats operated on lnfraorbital nerve
Assay: Rats operated on infraorbital nerve (ligature): response/nociceptive threshold measured as aversive reactions
Format: in vivo
Description: Figures 1 and 2: Refering to example 7 they show the high efficacy of Cizolirtine in a model for the central neuropathic pain, the ligature of the infraorbital nerve.
Rats operated on lnfraorbital nerve
Rats were operated placing a ligature around the infraorbital nerve on one side. Following this operation the response threshold in (g) is reduced considerably if comparing the ipsilateral and contralateral side to the response pre ligature (Fig. 2) measured as aversive reactions. […] Saline produced no modification of the nociceptive threshold.

CN(C)CCOC(c1ccccc1)c1ccnn1C (racemic) [Cizolirtine, (±)-5-{α-[2-(dimethylamino)ethoxy]benzyl}-1-methyl-1H-pirazole]
nociceptive threshold (%) (i.p., 80 mg/kg, ipsilateral side, rats with ligature around the infraorbital nerve, Fig. 1): strong inducement of the nociceptive threshold
efficacy in a model for the central neuropathic pain, the ligature of the infraorbital nerve (legend of Figures 1 and 2, referring to example 7): high efficacy
